Experimental data as given in patent US10351575B2, “Bicyclic urea, thiourea, guanidine and cyanoguanidine compounds useful for the treatment of pain” (Array BioPharma Inc., priority 2012, dated 2019).

Assays:
Test in all cases: KinaseProfiler off-target kinase profiling
Assay type in all cases: biochemical
Conditions in all cases: 10 μM, ATP near Km
ALK = ALK (Homo sapiens (Human), UniProt Q9UM73)
Description: (§1) Representative compounds (Examples 12, 32, 26 and 2) of the invention were tested for off-target kinase activity at a concentration of 10 μM by Millipore, Inc. in their KinaseProfiler™ service against all the kinases available in their full kinase panel. Compounds were run in duplicate at a concentration of ATP near the Km for each individual kinase according to Millipore's specifications. The results are shown in Table B. Data are reported as percent of control (POC) and are the average of the two replicates.

MYLK = MYLK (Homo sapiens (Human), UniProt Q15746)
Description: as §1

Mer = Mer (Homo sapiens (Human), UniProt Q12866)
Sequence of Mer (Q12866 21-999): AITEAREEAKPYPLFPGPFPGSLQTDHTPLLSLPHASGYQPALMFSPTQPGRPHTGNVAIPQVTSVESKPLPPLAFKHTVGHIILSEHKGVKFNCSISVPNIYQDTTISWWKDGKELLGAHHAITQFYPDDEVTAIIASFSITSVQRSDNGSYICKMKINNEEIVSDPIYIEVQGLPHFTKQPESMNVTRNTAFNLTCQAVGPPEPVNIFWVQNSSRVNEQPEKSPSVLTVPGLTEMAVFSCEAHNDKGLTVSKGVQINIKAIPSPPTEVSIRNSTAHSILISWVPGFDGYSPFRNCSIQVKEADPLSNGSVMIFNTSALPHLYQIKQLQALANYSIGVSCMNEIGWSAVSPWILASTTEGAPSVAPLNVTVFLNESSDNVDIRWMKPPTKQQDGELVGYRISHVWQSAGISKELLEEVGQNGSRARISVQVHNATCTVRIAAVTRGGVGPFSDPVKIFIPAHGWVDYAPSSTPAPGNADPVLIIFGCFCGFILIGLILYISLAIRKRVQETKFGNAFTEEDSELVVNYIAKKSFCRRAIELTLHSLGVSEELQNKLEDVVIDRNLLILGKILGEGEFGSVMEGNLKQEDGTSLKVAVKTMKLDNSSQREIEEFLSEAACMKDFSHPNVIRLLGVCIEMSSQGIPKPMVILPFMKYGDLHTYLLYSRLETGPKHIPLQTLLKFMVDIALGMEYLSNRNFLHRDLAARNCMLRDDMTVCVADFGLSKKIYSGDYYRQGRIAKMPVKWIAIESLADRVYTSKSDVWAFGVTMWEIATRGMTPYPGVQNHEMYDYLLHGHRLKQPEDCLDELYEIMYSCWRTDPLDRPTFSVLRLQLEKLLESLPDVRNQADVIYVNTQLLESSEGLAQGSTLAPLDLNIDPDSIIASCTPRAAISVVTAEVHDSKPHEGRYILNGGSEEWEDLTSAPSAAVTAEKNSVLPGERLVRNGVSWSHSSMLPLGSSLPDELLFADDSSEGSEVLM
Description: as §1

c-RAF = c-RAF (Homo sapiens (Human), UniProt P04049, Y340D/Y341D)
Description: as §1

DRAK1 = DRAK1 (Homo sapiens (Human), UniProt Q9UEE5)
Description: as §1

p38delta = p38delta (Homo sapiens (Human), UniProt O15264)
Description: as §1

eEF-2K = eEF-2K (Homo sapiens (Human), UniProt O00418)
Description: as §1

CDK5/p35 = CDK5/p35 (Homo sapiens (Human), UniProt Q00535)
Description: as §1

PDGFRbeta = PDGFRbeta (Homo sapiens (Human), UniProt P09619)
Description: as §1

IRR = IRR (Homo sapiens (Human), UniProt P14616)
Description: as §1

CDK2/cyclinA = CDK2/cyclinA (Homo sapiens (Human), UniProt P24941)
Description: as §1

DAPK2 = DAPK2 (Homo sapiens (Human), UniProt Q9UIK4)
Description: as §1

EphA1 = EphA1 (Homo sapiens (Human), UniProt P21709)
Sequence of EphA1 (P21709 26-976): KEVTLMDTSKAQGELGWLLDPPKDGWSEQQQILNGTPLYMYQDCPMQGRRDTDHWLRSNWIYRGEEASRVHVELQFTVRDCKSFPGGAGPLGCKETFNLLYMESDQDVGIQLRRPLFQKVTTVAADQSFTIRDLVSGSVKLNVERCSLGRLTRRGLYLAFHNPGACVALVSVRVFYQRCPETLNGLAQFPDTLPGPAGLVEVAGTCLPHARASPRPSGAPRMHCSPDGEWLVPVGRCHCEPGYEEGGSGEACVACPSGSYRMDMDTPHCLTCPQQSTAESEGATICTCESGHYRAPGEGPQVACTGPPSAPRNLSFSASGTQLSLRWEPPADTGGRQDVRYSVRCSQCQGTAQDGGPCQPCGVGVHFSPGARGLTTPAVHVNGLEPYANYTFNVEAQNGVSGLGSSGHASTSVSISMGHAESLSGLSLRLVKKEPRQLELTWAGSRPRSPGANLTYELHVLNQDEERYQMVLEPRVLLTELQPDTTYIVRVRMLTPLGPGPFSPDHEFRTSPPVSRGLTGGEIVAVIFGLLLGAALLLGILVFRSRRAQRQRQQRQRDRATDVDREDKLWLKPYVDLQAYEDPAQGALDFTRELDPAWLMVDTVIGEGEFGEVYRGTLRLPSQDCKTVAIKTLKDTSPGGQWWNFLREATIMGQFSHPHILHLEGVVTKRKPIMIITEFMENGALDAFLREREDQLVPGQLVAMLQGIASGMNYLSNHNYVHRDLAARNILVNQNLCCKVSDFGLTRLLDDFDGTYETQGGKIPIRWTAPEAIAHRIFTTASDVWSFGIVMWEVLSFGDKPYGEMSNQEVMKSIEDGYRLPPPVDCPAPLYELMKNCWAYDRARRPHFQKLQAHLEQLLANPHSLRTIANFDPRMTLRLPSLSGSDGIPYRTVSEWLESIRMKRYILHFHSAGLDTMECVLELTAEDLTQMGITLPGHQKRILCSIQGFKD
Description: as §1

MRCKalpha = MRCKalpha (Homo sapiens (Human), UniProt Q5VT25)
Description: as §1

DAPK1 = DAPK1 (Homo sapiens (Human), UniProt P53355)
Description: as §1

PKCiota = PKCiota (Homo sapiens (Human), UniProt P41743)
Description: as §1

ROCK-II = ROCK-II (Homo sapiens (Human), UniProt O75116)
Description: as §1

GSK3alpha = GSK3alpha (Homo sapiens (Human), UniProt P49840)
Description: as §1

FGFR1 = FGFR1 (Homo sapiens (Human), UniProt P11362)
Description: as §1

MSSK1 = MSSK1 (Homo sapiens (Human), UniProt Q9UPE1)
Sequence of MSSK1 (Q9UPE1 whole entry): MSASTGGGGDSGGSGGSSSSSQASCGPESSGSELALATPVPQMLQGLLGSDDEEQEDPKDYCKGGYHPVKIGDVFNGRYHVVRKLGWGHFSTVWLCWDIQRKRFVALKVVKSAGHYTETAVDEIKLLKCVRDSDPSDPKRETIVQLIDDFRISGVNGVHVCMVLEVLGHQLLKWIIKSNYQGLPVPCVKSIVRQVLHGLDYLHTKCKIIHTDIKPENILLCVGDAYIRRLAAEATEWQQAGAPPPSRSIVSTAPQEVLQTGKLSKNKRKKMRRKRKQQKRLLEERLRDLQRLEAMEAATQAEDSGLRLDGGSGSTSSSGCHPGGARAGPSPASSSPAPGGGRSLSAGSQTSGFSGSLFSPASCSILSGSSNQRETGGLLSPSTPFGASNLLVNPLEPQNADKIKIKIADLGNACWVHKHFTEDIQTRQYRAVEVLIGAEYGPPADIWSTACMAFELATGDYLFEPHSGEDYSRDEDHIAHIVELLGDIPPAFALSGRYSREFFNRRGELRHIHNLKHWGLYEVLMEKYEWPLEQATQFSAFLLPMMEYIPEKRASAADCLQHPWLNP
Description: as §1

ERK2 = ERK2 (Homo sapiens (Human), UniProt P28482)
Description: as §1

LKB1 = LKB1 (Homo sapiens (Human), UniProt Q15831)
Description: as §1

PAK6 = PAK6 (Homo sapiens (Human), UniProt Q9NQU5)
Description: as §1

ROCK-I = ROCK-I (Homo sapiens (Human), UniProt Q13464)
Sequence of ROCK-I (Q13464 whole entry): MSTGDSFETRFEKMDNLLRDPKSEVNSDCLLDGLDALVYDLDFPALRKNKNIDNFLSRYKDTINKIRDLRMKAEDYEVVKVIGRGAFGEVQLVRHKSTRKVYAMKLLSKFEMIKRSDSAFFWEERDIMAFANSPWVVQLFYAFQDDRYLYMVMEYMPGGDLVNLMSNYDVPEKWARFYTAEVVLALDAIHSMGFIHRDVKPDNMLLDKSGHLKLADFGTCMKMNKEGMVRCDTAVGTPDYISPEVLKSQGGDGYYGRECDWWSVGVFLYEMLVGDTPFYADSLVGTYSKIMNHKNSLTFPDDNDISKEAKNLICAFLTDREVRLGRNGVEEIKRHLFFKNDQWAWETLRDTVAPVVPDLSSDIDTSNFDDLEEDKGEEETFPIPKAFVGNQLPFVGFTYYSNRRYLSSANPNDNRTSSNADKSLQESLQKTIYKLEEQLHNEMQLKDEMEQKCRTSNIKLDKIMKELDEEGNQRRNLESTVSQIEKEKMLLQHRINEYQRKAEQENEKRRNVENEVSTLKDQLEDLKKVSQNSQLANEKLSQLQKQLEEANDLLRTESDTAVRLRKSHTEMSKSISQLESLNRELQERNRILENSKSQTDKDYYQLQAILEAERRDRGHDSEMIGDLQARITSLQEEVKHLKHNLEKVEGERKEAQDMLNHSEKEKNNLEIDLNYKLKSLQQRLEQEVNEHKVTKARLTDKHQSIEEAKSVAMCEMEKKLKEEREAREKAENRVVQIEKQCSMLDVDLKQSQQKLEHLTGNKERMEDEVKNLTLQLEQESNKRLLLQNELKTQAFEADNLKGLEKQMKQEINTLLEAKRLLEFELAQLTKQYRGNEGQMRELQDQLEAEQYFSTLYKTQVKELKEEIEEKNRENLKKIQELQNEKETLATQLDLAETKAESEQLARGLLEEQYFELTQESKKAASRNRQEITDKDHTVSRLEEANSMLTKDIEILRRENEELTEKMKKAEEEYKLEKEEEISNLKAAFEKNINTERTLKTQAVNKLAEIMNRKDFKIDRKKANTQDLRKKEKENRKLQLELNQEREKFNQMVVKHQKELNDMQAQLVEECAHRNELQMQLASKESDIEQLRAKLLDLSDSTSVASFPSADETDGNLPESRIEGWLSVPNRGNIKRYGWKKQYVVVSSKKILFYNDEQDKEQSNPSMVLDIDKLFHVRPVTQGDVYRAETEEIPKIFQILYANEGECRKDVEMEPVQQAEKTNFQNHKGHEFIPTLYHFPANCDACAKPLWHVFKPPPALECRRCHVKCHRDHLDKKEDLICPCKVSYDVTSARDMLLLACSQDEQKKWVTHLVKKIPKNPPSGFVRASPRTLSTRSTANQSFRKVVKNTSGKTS
Description: as §1

EphA3 = EphA3 (Homo sapiens (Human), UniProt P29320)
Description: as §1

MST3 = MST3 (Homo sapiens (Human), UniProt Q9Y6E0)
Description: as §1

NLK = NLK (Homo sapiens (Human), UniProt Q9UBE8)
Description: as §1

CK1gamma3 = CK1gamma3 (Homo sapiens (Human), UniProt Q9Y6M4)
Description: as §1

LOK = LOK (Homo sapiens (Human), UniProt O94804)
Description: as §1

Pim-2 = Pim-2 (Homo sapiens (Human), UniProt Q9P1W9)
Sequence of Pim-2 (Q9P1W9 whole entry): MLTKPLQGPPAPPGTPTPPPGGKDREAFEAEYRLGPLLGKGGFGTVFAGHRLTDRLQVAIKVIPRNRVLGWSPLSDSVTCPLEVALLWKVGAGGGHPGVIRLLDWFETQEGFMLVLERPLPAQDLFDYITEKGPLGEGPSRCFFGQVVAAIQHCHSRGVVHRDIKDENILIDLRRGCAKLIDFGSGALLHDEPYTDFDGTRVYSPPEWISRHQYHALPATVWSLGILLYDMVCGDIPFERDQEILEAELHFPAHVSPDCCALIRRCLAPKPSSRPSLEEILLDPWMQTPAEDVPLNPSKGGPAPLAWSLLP
Description: as §1

HIPK3 = HIPK3 (Homo sapiens (Human), UniProt Q9H422)
Description: as §1

GRK6 = GRK6 (Homo sapiens (Human), UniProt P43250)
Sequence of GRK6 (P43250 whole entry): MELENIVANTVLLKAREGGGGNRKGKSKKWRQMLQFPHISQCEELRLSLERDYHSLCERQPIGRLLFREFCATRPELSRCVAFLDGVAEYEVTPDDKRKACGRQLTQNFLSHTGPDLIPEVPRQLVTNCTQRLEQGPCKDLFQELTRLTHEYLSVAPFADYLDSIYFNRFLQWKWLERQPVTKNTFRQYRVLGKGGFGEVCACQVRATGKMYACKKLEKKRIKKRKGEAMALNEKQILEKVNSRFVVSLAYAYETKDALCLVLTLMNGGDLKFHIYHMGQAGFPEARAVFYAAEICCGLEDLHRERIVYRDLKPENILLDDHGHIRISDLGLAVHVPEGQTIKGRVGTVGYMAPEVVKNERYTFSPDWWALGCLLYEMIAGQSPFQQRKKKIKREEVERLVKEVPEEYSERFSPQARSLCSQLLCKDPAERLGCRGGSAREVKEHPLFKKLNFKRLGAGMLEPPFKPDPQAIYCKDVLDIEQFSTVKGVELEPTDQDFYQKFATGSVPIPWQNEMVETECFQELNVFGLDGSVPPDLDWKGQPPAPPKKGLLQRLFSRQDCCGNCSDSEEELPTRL
Description: as §1

PrKX = PrKX (Homo sapiens (Human), UniProt P51817)
Description: as §1

Pim-1 = Pim-1 (Homo sapiens (Human), UniProt P11309)
Sequence of Pim-1 (P11309 whole entry): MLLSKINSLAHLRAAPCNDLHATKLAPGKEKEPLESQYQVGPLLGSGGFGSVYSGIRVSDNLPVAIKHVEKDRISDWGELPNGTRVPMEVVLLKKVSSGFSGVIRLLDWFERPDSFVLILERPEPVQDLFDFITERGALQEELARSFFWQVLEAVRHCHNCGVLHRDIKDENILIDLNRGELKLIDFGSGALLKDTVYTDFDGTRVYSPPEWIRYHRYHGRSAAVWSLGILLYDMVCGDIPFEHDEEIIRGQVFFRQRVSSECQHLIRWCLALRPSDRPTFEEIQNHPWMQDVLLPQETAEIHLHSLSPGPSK
Description: as §1

NEK7 = NEK7 (Homo sapiens (Human), UniProt Q8TDX7)
Description: as §1

TEC Activated = TEC Activated (Homo sapiens (Human), UniProt P42680)
Description: as §1

Fes = Fes (Homo sapiens (Human), UniProt P07332)
Description: as §1

MAPKAP-K3 = MAPKAP-K3 (Homo sapiens (Human), UniProt Q16644)
Description: as §1

CAMK1d = CAMK1d (Homo sapiens (Human), UniProt Q8IU85)
Description: as §1

| Compound | Avg. POC (ALK) [POC] | Avg. POC (MYLK) [POC] | Avg. POC (Mer) [POC] | Avg. POC (c-RAF) [POC] | Avg. POC (DRAK1) [POC] | Avg. POC (p38delta) [POC] | Avg. POC (eEF-2K) [POC] | Avg. POC (CDK5/p35) [POC] | Avg. POC (PDGFRbeta) [POC] | Avg. POC (IRR) [POC] | Avg. POC (CDK2/cyclinA) [POC] | Avg. POC (DAPK2) [POC] | Avg. POC (EphA1) [POC] | Avg. POC (MRCKalpha) [POC] | Avg. POC (DAPK1) [POC] | Avg. POC (PKCiota) [POC] | Avg. POC (ROCK-II) [POC] | Avg. POC (GSK3alpha) [POC] | Avg. POC (FGFR1) [POC] | Avg. POC (MSSK1) [POC] | also measured |
| --- | --- | --- | --- | --- | --- | --- | --- | --- | --- | --- | --- | --- | --- | --- | --- | --- | --- | --- | --- | --- | --- |
| Cc1c(-c2cnn(C)c2)nn(-c2ccccc2)c1NC(=O)N[C@H]1CCCc2ccccc21 [Example 2, (S)-1-(1′,4-dimethyl-1-phenyl-1H,1′H-3,4′-bipyrazol-5-yl)-3-(1,2,3,4-tetrahydronaphthalen-1-yl)urea] | 111 | 100 | 109.5 | 103.5 | 108.5 | 96.5 | 138 | 124 | 149 | 2.5 | 127 | 123.5 | 85 | 127.5 | 108.5 | 95.5 | 108 | 123.5 | 114 | 116 | Avg. POC (ERK2): 112.5 POC; Avg. POC (LKB1): 103.5 POC; Avg. POC (PAK6): 119.5 POC; Avg. POC (ROCK-I): 116.5 POC; Avg. POC (EphA3): 123.5 POC; Avg. POC (MST3): 120 POC; Avg. POC (NLK): 111 POC; Avg. POC (CK1gamma3): 118 POC; Avg. POC (LOK): 109.5 POC; Avg. POC (Pim-2): 148 POC; Avg. POC (HIPK3): 119.5 POC; Avg. POC (GRK6): 103.5 POC; Avg. POC (PrKX): 152 POC; Avg. POC (Pim-1): 173 POC; Avg. POC (NEK7): 94.5 POC; Avg. POC (TEC Activated): 153 POC; Avg. POC (Fes): 129.5 POC; Avg. POC (MAPKAP-K3): 128 POC; Avg. POC (CAMK1d): 127 POC |
| Cc1c(-c2cnn(C)c2)nn(-c2ccccc2)c1NC(=O)NC1CCOc2cc(F)ccc21 (stereo not drawn) [Example 12, 1-(1′,4-dimethyl-1-phenyl-1H,1′H-[3,4′-bipyrazol]-5-yl)-3-(7-fluorochroman-4-yl)urea] | 103 | 99 | 98 | 96 | 114 | 99.5 | 140 | 106.5 | 125.5 | 91 | 112 | 102.5 | 100 | 139 | 136 | 69.5 | 99 | 119.5 | 90 | 112.5 | Avg. POC (ERK2): 106.5 POC; Avg. POC (LKB1): 91 POC; Avg. POC (PAK6): 139 POC; Avg. POC (ROCK-I): 116.5 POC; Avg. POC (EphA3): 114.5 POC; Avg. POC (MST3): 131.5 POC; Avg. POC (NLK): 115.5 POC; Avg. POC (CK1gamma3): 104.5 POC; Avg. POC (LOK): 116 POC; Avg. POC (Pim-2): 118.5 POC; Avg. POC (HIPK3): 102.5 POC; Avg. POC (GRK6): 103 POC; Avg. POC (PrKX): 118.5 POC; Avg. POC (Pim-1): 106 POC; Avg. POC (NEK7): 133.5 POC; Avg. POC (TEC Activated): 122.5 POC; Avg. POC (Fes): 110 POC; Avg. POC (MAPKAP-K3): 112 POC; Avg. POC (CAMK1d): 137 POC |
| Cc1c(-c2ccc(=O)n(C)c2)nn(-c2ccccc2)c1NC(=O)NC1CN(CC(F)(F)F)Cc2ccccc21 (stereo not drawn) [Example 26, 1-(4-methyl-3-(1-methyl-6-oxo-1,6-dihydropyridin-3-yl)-1-phenyl-1H-pyrazol-5-yl)-3-(2-(2,2,2-trifluoroethyl)-1,2,3,4-tetrahydroisoquinolin-4-yl)urea] | 117 | 101 | 98 | 106.5 | 125 | 102 | 127.5 | 110.5 | 122.5 | 89 | 114.5 | 108.5 | 101 | 124.5 | 135 | 85.5 | 110 | 115.5 | 104.5 | 120.5 | Avg. POC (ERK2): 107.5 POC; Avg. POC (LKB1): 95 POC; Avg. POC (PAK6): 116.5 POC; Avg. POC (ROCK-I): 112 POC; Avg. POC (EphA3): 128 POC; Avg. POC (MST3): 108.5 POC; Avg. POC (NLK): 100.5 POC; Avg. POC (CK1gamma3): 102.5 POC; Avg. POC (LOK): 109 POC; Avg. POC (Pim-2): 120.5 POC; Avg. POC (HIPK3): 111 POC; Avg. POC (GRK6): 100.5 POC; Avg. POC (PrKX): 109 POC; Avg. POC (Pim-1): 97.5 POC; Avg. POC (NEK7): 126 POC; Avg. POC (TEC Activated): 113.5 POC; Avg. POC (Fes): 100.5 POC; Avg. POC (MAPKAP-K3): 108.5 POC; Avg. POC (CAMK1d): 97 POC |
| COCc1ccc2c(c1)C(NC(=O)Nc1c(C)c(-c3cnn(C)c3)nn1-c1ccccc1)COC2 (stereo not drawn) [Example 32, 1-(1′,4-dimethyl-1-phenyl-1H,1′H-[3,4′-bipyrazol]-5-yl)-3-(6-(methoxymethyl)isochroman-4-yl)urea] | 127 | 97.5 | 104 | 101.5 | 105.5 | 113.5 | 115 | 112 | 131.5 | 109.5 | 118 | 103 | 114 | 131 | 131 | 71 | 106 | 112.5 | 104.5 | 105.5 | Avg. POC (ERK2): 128.5 POC; Avg. POC (LKB1): 100 POC; Avg. POC (PAK6): 116.5 POC; Avg. POC (ROCK-I): 103 POC; Avg. POC (EphA3): 122 POC; Avg. POC (MST3): 130.5 POC; Avg. POC (NLK): 125.5 POC; Avg. POC (CK1gamma3): 102 POC; Avg. POC (LOK): 103.5 POC; Avg. POC (Pim-2): 116.5 POC; Avg. POC (HIPK3): 107 POC; Avg. POC (GRK6): 101 POC; Avg. POC (PrKX): 110 POC; Avg. POC (Pim-1): 109 POC; Avg. POC (NEK7): 122.5 POC; Avg. POC (TEC Activated): 108.5 POC; Avg. POC (Fes): 112.5 POC; Avg. POC (MAPKAP-K3): 105 POC; Avg. POC (CAMK1d): 114 POC |
